Assay results published in PMC10065799, “High-throughput profiling of sequence recognition by tyrosine kinases and SH2 domains using bacterial peptide display” (eLife, 2023).
Values belong to the substance of their own block, whether it stands above or below them.

How the values were obtained:
Assay in all cases: pTyr-Var library bacterial peptide display kinase screen (enrichment scores)
EPHB2 kinase domain = assay type: biochemical, human; details: sheet EPHB2; effect of variant peptide relative to its reference peptide in the pTyr-Var library screen (enrichment scores)
c-Src kinase domain = c-Src kinase domain (Homo sapiens, UniProt P12931); assay type: biochemical; details: sheet "Src";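 note: log2 fold change in enrichment of variant over reference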
Fer kinase domain = assay type: biochemical, mouse; details: sheet "Fer"
c-Abl kinase domain = target: T1, c-Abl kinase domain (Mus musculus, UniProt P00520); assay type: biochemical;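 note: log2 fold change in enrichment of variant over reference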
T1 sequence (P00520 242-493 limits assumed): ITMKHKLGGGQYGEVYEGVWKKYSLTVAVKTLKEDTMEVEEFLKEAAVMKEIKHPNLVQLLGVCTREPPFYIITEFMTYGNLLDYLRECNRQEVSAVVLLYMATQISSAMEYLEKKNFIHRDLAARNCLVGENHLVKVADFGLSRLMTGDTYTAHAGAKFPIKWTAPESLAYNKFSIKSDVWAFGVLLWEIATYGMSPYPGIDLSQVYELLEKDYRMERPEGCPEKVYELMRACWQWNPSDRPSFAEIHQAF

EPHB1 kinase domain = assay type: biochemical, human; details: for Screen (variant relative to reference peptide, measured in the pTyr-Var library screen): sheet "EPHB1", variant seq vs reference seq, bacterial peptide display enrichment; for Screen: sheet EPHB1, effect of the variant peptide relative to its reference peptide in the pTyr-Var library screen (enrichment scores)
[1] = effect of the variant peptide relative to its reference peptide in the pTyr-Var library screen
[2] = variant peptide relative to its reference peptide, pTyr-Var library screen enrichment
[3] = variant peptide versus its reference peptide in the pTyr-Var library screen
[4] = fig5-data2, sheet "Abl", Screen for the variant/reference peptide pair, pTyr-Var library
[5] = sheet "Abl", effect of variant peptide relative to its reference peptide in pTyr-Var library screen (enrichment)
[6] = value of the variant peptide against its reference peptide in the pTyr-Var library screen with Fer

Substance: Ac-IGEGTYRTVFK-NH2 [CDK5_Y15_G16R, pTyr-Var library variant phosphosite peptide]
Screen (EPHB2 kinase domain): -2.132 | Screen (c-Src kinase domain; [1]): -3.502

Substance: SNKLTYGTVVF [ACOX1_Y275_M278V]
Screen (c-Src kinase domain; [1]): 0.3111

Substance: LNECHYGALIG [BPGM_Y92_R90C]
Screen (c-Src kinase domain; [1]): 2.509

Substance: HNELFYEAAEH [VANGL1_Y345_E347A_YF]
Screen (Fer kinase domain; [2]): 1.287 | Screen (c-Src kinase domain; [3]): 1.947

Substance: PRNLIYFGEHP [TRPV6_Y201_C197R]
Screen (c-Src kinase domain; [3]): -3.508

Substance: LITTLYSGFLG [KCNQ1_Y267_I268S]
Screen (c-Src kinase domain; [1]): 0.982

Screen (c-Abl kinase domain; [4]): -0.6801
Substance: AGQEGYDRLRP [RAC1_Y64_D63G]

Screen (c-Abl kinase domain; [5]): 1.136
Substance: FNDSAYNQQLI [ZPLD1_Y198_T197A_YF]

Substance: PLDGEYFSLQI [TP53_Y327_T329S]
Screen (c-Src kinase domain; [3]): 0.4244

Screen (c-Abl kinase domain; [4]): -1.003
Substance: KFFRVYQGQQP [MUTYH_Y494_V490F]

Substance: GPQSLYNGLVA [UCP2_Y79_R76Q]
Screen (c-Src kinase domain; [3]): 1.82

Screen (Fer kinase domain; [6]): -1.638
Substance: GHLFAYNWISI [BEST1_Y227_D228N_YF]

Substance: TFGNLYGSRKQ [YIPF7_Y59_A54T_YF]
Screen (c-Abl kinase domain; [5]): -3.299 | Screen (c-Src kinase domain; [3]): 0.7296

Substance: RRIHSYRGRLW [VHL_Y112_H115R]
Screen (variant relative to reference peptide, measured in the pTyr-Var library screen) (EPHB1 kinase domain): -0.8094 | Screen (c-Src kinase domain; [3]): -2.396

Screen (c-Abl kinase domain; [4]): 0.9829
Substance: GDAMLYFPSVS [GPR143_Y177_A173D_YF]

Screen (c-Abl kinase domain; [4]): 0.5925
Substance: APAHKYHGGGG [HBD_Y146_L142P]

Screen (c-Abl kinase domain; [4]): -1.592
Substance: LESETYRRLLD [KRT12_Y429_I426S]

Substance: REGKIYEFNQV [ZNF665_Y162_H157R_YF]
Screen (Fer kinase domain; [2]): -0.7739 | Screen (c-Abl kinase domain; [5]): -1.605 | Screen (c-Src kinase domain; effect of the variant peptide against its reference peptide, seen in the pTyr-Var library screen): -1.072

Substance: LNPLVYTLRNA [OR4C12_Y285_V283L]
Screen (c-Src kinase domain; [3]): 0.901

Screen (c-Abl kinase domain; [4]): 0.869
Substance: ARVANYHRDGP [CAT_Y386_Q387H]

Screen (c-Abl kinase domain; [4]): -0.5103
Substance: VCHELYNAIRD [PBRM1_Y54_T56A]

Screen (c-Abl kinase domain; [5]): 0.619
Substance: TVLWLYTGTRP [UGT1A1_Y337_R336L]

Screen (c-Abl kinase domain; [4]): -0.5192
Substance: DLAHKYHGGGG [HBB_Y146_A141D]

Screen (c-Abl kinase domain; [5]): 4.539
Substance: KNSSIYVVANI [VNN1_Y134_N131S]

Screen (c-Abl kinase domain; [5]): 2.42
Substance: MKGEFYRFLAE [YWHAG_Y131_D129E_YF]

Screen (Fer kinase domain; [6]): 2.326
Substance: EGNEQYEGFCV [GRIA3_Y451_R450Q_YF]

Screen (EPHB1 kinase domain): 0.2649
Substance: DNLSNYVFQGQ [GRIN2A_Y978_N976S]

Screen (Fer kinase domain; [6]): -1.379 | Screen (EPHB1 kinase domain): -1.865
Substance: KKHIPYSEHKS [CSNK1G2_Y206_R207S]

Substance: PNRILYGDFWQ [MYH7_Y715_R719W]
Screen (c-Src kinase domain; [3]): -0.3786

Screen (c-Abl kinase domain; [5]): -3.327
Substance: VLALWYFFLTN [ZDHHC23_Y127_H132N_YF]

Substance: QMVRMYASSFM [AVPR2_Y124_G122R_YF]
Screen (c-Src kinase domain; [1]): -2.32

Screen (c-Abl kinase domain; [4]): -1.987
Substance: PQGVSYIFTID [DCX_Y103_R102S_YF]

Substance: ETELPYQELQG [TYROBP_Y91_S89L]
Screen (c-Src kinase domain; [3]): 0.7128

Substance: DWRQEYVLNEP [TGM1_Y267_S272P]
Screen (c-Src kinase domain; [3]): 0.4859

Screen (variant relative to reference peptide, measured in the pTyr-Var library screen) (EPHB1 kinase domain): -0.4562
Substance: CLGNQYVNVMN [SLC3A1_Y461_R456C]

Substance: GNLLIYTKFGK [HGD_Y166_E168K]
Screen (EPHB1 kinase domain): -0.9666 | Screen (c-Abl kinase domain; [4]): 0.592 | Screen (c-Src kinase domain; [1]): -1.556

Substance: RNLLIYTEFGK [HGD_Y166_G161R]
Screen (EPHB1 kinase domain): 0.6934 | Screen (c-Src kinase domain; [1]): -0.2684

Substance: DDEVFYSPLSL [OTC_Y317_R320L]
Screen (Fer kinase domain; [6]): 2.858 | Screen (c-Src kinase domain; [3]): 2.664

Screen (c-Abl kinase domain; [5]): 0.2086
Substance: ESMQSYDLDFP [UNC13B_Y243_D238E_YF]

Screen (c-Abl kinase domain; [4]): -1.351
Substance: QKPLGYFRVNL [GALE_Y104_D103G_YF]

Screen (c-Abl kinase domain; [4]): 1.883
Substance: NSFKFYMSDDI [ATRX_Y204_C200S_YF]

Screen (c-Abl kinase domain; [5]): -0.666
Substance: ETCLAYMEKRI [TEKT1_Y118_R119M]

Substance: MSRDVYSTDCF [NTRK2_Y702_Y706C_YF]
Screen (c-Src kinase domain; [3]): -0.1963

Substance: ACCLLYHGDVV [TUBA4A_Y319_R320H]
Screen (Fer kinase domain; [2]): 1.239 | Screen (c-Src kinase domain; [3]): -0.1128

Substance: VFFDLYGGEKF [PTPN11_Y66_D61V_YF]
Screen (c-Src kinase domain; [3]): -0.4607

Screen (c-Abl kinase domain; [4]): -1.65
Substance: NDQANYLLNTD [ADA_Y290_S291L]

Substance: LNPLFYSLRNK [OR5R1_Y290_I289F]
Screen (EPHB1 kinase domain): -2.165 | Screen (c-Src kinase domain; [3]): -4.245

Screen (c-Abl kinase domain; [4]): 1.184
Substance: FDNSVYQKTTE [LDLR_Y828_P826S]

Screen (c-Abl kinase domain; [4]): -2.172
Substance: AVEDQYFRVDC [FHL1_Y207_C209R_YF]

Screen (c-Abl kinase domain; [5]): 1.586
Substance: VHKKGYNKLNQ [ZNF676_Y98_E96K]

Screen (c-Abl kinase domain; [4]): -1.313
Substance: DTLLEYLENPK [CYCS_Y68_M66L]
